Data published in PubChem BioAssay (NCI).
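Following 48 hours of exposure in 96-well plates, responses at five concentrations were used to interpolate endpoints linearly. GI50 is the concentration that inhibits growth by half. TGI: concentration producing complete growth inhibition.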

Tests used:
Assay in all cases: NCI anticancer screen, dose series, 48 h; in the data active = GI50 below about 0.43 µM; inactive = the rest
[1] = tested on: SNB-75 CNS
[2] = tested on: HCT-116 colon
[3] = tested on: SK-MEL-28 melanoma
[4] = tested on: OVCAR-5 ovarian
[5] = tested on: RPMI-8226 leukemia
[6] = tested on: HCC-2998 colon
[7] = tested on: M14 melanoma
[8] = tested on: A549 NSCLC
[9] = tested on: COLO 205 colon
[10] = tested on: KM12 colon
[11] = tested on: SF-268 CNS
[12] = tested on: MDA-MB-231 breast
[13] = tested on: HT29 colon
[14] = tested on: RXF 393 renal
[15] = tested on: BT-549 breast
[16] = tested on: PC-3 prostate
[17] = tested on: U251 CNS
[18] = tested on: HS 578T breast
[19] = tested on: SW-620 colon
[20] = tested on: UACC-62 melanoma
[21] = tested on: SK-MEL-5 melanoma
[22] = tested on: OVCAR-3 ovarian
[23] = tested on: HOP-62 NSCLC
[24] = tested on: SNB-19 CNS
[25] = tested on: HCT-15 colon
[26] = tested on: NCI-H522 lung
[27] = tested on: HL-60(TB) leukemia
[28] = tested on: MCF7 breast
[29] = tested on: MOLT-4 leukemia
[30] = tested on: IGROV1 ovarian
[31] = tested on: SK-OV-3 ovarian
[32] = tested on: TK-10 renal
[33] = tested on: ACHN renal
[34] = tested on: NCI/ADR-RES ovarian
[35] = tested on: MALME-3M melanoma
[36] = tested on: UACC-257 melanoma
[37] = tested on: 786-0 renal
[38] = tested on: EKVX NSCLC
[39] = tested on: CAKI-1 renal
[40] = tested on: DU-145 prostate
[41] = tested on: SF-539 CNS
[42] = tested on: SR leukemia
[43] = tested on: OVCAR-8 ovarian
[44] = tested on: MDA-MB-435
[45] = tested on: OVCAR-4 ovarian
[46] = tested on: NCI-H23 lung
[47] = tested on: SF-295 CNS
[48] = tested on: NCI-H460 lung
[49] = tested on: SK-MEL-2 melanoma
[50] = tested on: SN12C renal
[51] = tested on: T-47D breast
[52] = tested on: CCRF-CEM leukemia
[53] = tested on: K-562 leukemia
[54] = tested on: HOP-92 NSCLC
[55] = tested on: A498 renal

Cc1cc2ccccc2n2c1nc1ccc(O)cc12
> 10 µM: TGI [1] | TGI [2] | TGI [3] | TGI [4] | TGI [5] | TGI [6] | TGI [7] | TGI [8] | TGI [9] | TGI [10] | TGI [11] | TGI [12] | TGI [13] | TGI [14] | TGI [15] | TGI [16] | TGI [17] | TGI [18] | TGI [19] | TGI [20] | TGI [21] | TGI [22] | TGI [23] | TGI [24] | TGI [25] | TGI [26] | TGI [27] | TGI [28] | TGI [29] | TGI [30] | TGI [31] | TGI [32] | TGI [33] | TGI [34] | TGI [35] | TGI [36] | TGI [37] | TGI [38] | TGI [39] | TGI [40] | TGI [41] | TGI [42] | TGI [43] | TGI [44] | TGI [45] | TGI [46] | TGI [47] | TGI [48] | TGI [49] | TGI [50] | TGI [51] | TGI [52] | TGI [53]

COc1cc(C2CC(c3ccc(Cl)cc3)=NN2C(C)=O)ccc1Oc1ccnc2cc(Cl)ccc12 (stereo unspecified)
> 100 µM: TGI [4] | TGI [5] | TGI [6] | TGI [7] | TGI [55] | TGI [10] | TGI [15] | TGI [17] | TGI [18] | TGI [19] | TGI [20] | TGI [21] | TGI [24] | TGI [25] | TGI [27] | TGI [28] | TGI [29] | TGI [30] | TGI [35] | TGI [36] | TGI [37] | TGI [39] | TGI [40] | TGI [42] | TGI [44] | TGI [47] | TGI [50] | TGI [51] | TGI [52] | TGI [53]
20.1 µM: TGI [14]
7.76 µM: TGI [1]
inactive: GI50 [1] 1.66 µM | GI50 [54] 2.32 µM | GI50 [4] > 100 µM | GI50 [5] > 100 µM | GI50 [6] > 100 µM | GI50 [7] > 100 µM | GI50 [55] 4.09 µM | GI50 [10] > 100 µM | GI50 [14] 3.32 µM | GI50 [15] 1.4 µM | GI50 [17] 3.09 µM | GI50 [18] 2.94 µM | GI50 [19] > 100 µM | GI50 [20] > 100 µM | GI50 [21] > 100 µM | GI50 [24] > 100 µM | GI50 [25] > 100 µM | GI50 [27] > 100 µM | GI50 [28] > 100 µM | GI50 [29] > 100 µM | GI50 [30] > 100 µM | GI50 [35] > 100 µM | GI50 [36] > 100 µM | GI50 [37] 2.63 µM | GI50 [39] > 100 µM | GI50 [40] > 100 µM | GI50 [42] > 100 µM | GI50 [44] > 100 µM | GI50 [47] 4.22 µM | GI50 [49] 15.9 µM | GI50 [50] > 100 µM | GI50 [51] 2.85 µM | GI50 [52] > 100 µM | GI50 [53] > 100 µM
82.8 µM: TGI [49]
62.6 µM: TGI [54]
